Legend:
Type in all cases: cell-based, mouse
Atoh1-nGFP cells = assay: Hair cell differentiation of LCP organoids, FACS for Atoh1-nGFP cells; conditions: 10 days of differentiation (D10), standard differentiation treatment (CHIR99021 and LY411575) without or with pargyline
Experimental: (§1) Differentiation of LCPs into a hair cell lineage. […] To analyze the effect of the Lsd1 inhibitors, the LCPs were treated with the small molecules combined with a differentiation drug cocktail, pargyline and CHIR99021 or CHIR99021 at 1, 2, 4, and 10 days (McLean et al., 2017).
For the drug screening experiments, the expanded cells were passaged into a 96 well plate to test varying drug combinations. All experiments were done in triplicate at minimum. Atoh1-nGFP cells were quantified after 10 days in culture. The cell colonies were incubated in Cell Recovery Solution for 1 hour and dissociated into single cells using TrypleE. The total cell number and percentage of GFP+ cells were quantified using fluorescence activated cell sorting (FACS).
(§2) We next tested the effect of Lsd1 inhibition on hair cell differentiation. In this assay, after the cells were expanded into organoids during the initial proliferation phase, differentiation was initiated using the combination of CHIR99021 and LY411575 and allowed to progress for 10 days (DO to D10). Organoids were monitored for the development of hair cells using FACS and qRT-PCR. […] Conversely, Myo7a expression increases throughout development and is a key marker of mature hair cells. All hair cell markers tested were elevated with the exception of Atoh1, which had begun to decrease 10 days after the initiation of differentiation.

Myo7a = assay: qRT-PCR of Myo7a in differentiated LCP organoids; conditions: D10, pargyline-treated cells relative to standard treatment, p<0.05
Experimental: as §1
RNA extraction and PCR. For the LCPs, the organoids were treated with Cell Recovery Solution for at 1 hour and TrypleE for 20 minutes, then frozen in RLT buffer. RNA extractions were performed using the RNeasy Micro Kit (QIAGEN) and cDNA generated using ImProm-II Reverse Transcription Kit (Promega). TaqMan Real-Time PCR was performed in triplicates using the TaqMan Gene Expression Master Mix (ThermoFisher Scientific) on a StepOne Real-Time PCR machine (ThermoFisher Scientific). Ordinary One-way Anova was used to assess statistical significance. A minimum of three biologically distinct samples were analyzed for each condition.
as §2, with “All hair cell markers tested were elevated with the exception of Atoh1, which had begun to decrease 10 days after the initiation of differentiation.” left out

Tcf/Lef = Tcf/Lef luciferase reporter assay of Wnt activity in inner ear organoids; conditions: addition of pargyline to CHIR99021 or LYCH; luciferase at 48 hours
Experimental: Luciferase assay. Wnt activity was assessed in inner ear organoids using lentiviral vector expressing Firefly luciferase under the control of 7 Tcf binding sites (Fuerer and Nusse, 2010). Cochlear progenitor cells were dissected from sensory epithelia of wild-type neonatal mice using the established protocol described above (McLean et al., 2017). Dissociated cells were resuspended in proliferation media contain poly brene (Sigma) and lentivirus reporter (7TFC, Addgene #24307) and plated in 96 well plate coated with matrigel for 12-16 hours, [adapted from (Maru et al., 2016)]. The following day, media (containing dead cells and virus) was aspirated and a top layer of matrigel applied to the adherent cells and allowed to solidify, followed by addition of proliferation media. Media was changed every 2 days for 10 days as organoids developed. At day 10, media was changed to differentiation conditions with removal of growth factors and treatment with drug combinations described above. […] Luciferase was measured at 48 hours and normalized to total protein concentration.
Active canonical Wnt signaling is facilitated by the nuclear translocation of β-catenin, which binds with transcription factors of the Tcf/Lef family to activate transcription. […] We also analyzed Wnt activity in the treated cells using a Tcf/Lef reporter assay.

Atoh1 locus = assay: Chromatin immunoprecipitation (ChIP-qPCR) of histone marks on the Atoh1 gene in LCPs
Experimental: Chromatin immunoprecipitation. The colonies were treated with Cell Recovery solution for up to 2 hours and TrypleE for 30 minutes. The cells were fixed with 1% formaldehyde for 30 minutes at room temperature before termination with 0.1M Glycine. The cells were treated with lysis buffer (0.5M EDTA and 0.05% Triton-X 100) for 30 minutes on ice and then with nuclear extraction buffer (0.5M EDTA, 20% SDS, 1M Tris-HCl, pH 8) for 10 minutes. The cross-linked chromatin was sonicated for 30 minutes (30×30 seconds with 30 second intervals) and shearing quality confirmed by running 10 ul of the sample on a 1% agarose gel. The input sample used was 5% of the total chromatin. Lo-bind tubes containing Dyna-A and Dyna-B beads in PBS-BSA were incubated with 3 μg of Primary antibody for 6 hours-overnight with rotation at 4° C. The antibodies used were as follows H3K4me (ab8895: Abcam), H3K4me2 (ab77661: Abcam), H3K9me2 (ab1220; Abcam) and Lsd1 (ab17721: Abcam). The chromatin samples were treated with dilution buffer (1% Triton-X 100, 0.5M EDTA, 5M NaCl, 1M Tris-HCl, pH 8 and 1% Protease inhibitors×100) and incubated with the prepared beads for 6 hours-overnight. The beads were captured on a magnetic rack, washed with ChIP RIPA buffer (1M Hepes, 0.5M EDTA, 10% Na-deoxycholate, NP-40 and 5M LiCl: 6×10 minute washes), TE buffer (1M Tris-HCl and 0.5M EDTA: 2×10 minute washes), resuspended in reverse crosslinking solution (0.5M NaHCO3 and 20% SDS) and incubated overnight at 65° C. DNA was recovered using the Active motif DNA extraction kit (58002: Active Motif). RT-qPCR analyses were performed on immunoprecipitated DNA using specific primers described in Table 2. The results were calculated and presented as relative fold enrichment over the input.
In order to further dissect the mechanism of Lsd1 activity, we analyzed changes in epigenetic marks on several sites along the Atoh1 gene using chromatin immunoprecipitation. We used the LCPs starting at day 0 (D0) of differentiation with day 10 (D10) as the endpoint (FIG. 5A). Lsd1 has been characterized to demethylate the activating epigenetic marks H3K4me and H3K4me2 (Shi et al., 2004). […] Consistently, we observed accumulation of the activating H3K4me2 mark at the proximal promoter region (region 2) of the Atoh1 gene during hair cell differentiation (D10, p<0.05*: FIG. 5B). […] In addition, we examined the enrichment levels of H3K4me around the Atoh1 locus. […] Collectively, these findings reveal that Lsd1 inhibition increases accumulation of activating epigenetic marks, thereby facilitating the opening of the chromatin and activating transcription of the Atoh1 gene.
As Lsd1 is also known to demethylate H3K9me2, we analyzed the changes in the levels of this repressive mark at the Atoh1 locus (Metzger et al., 2005).

## C#CCN(C)Cc1ccccc1 [pargyline, N-Methyl-N-propargylbenzylamine]
Atoh1-nGFP cells
  percentage of Atoh1-nGFP cells in culture: 39%
Myo7a
  Myo7a expression: significantly upregulated
Tcf/Lef
  Tcf/Lef activity: no significant difference
Atoh1 locus; D10 with pargyline
  levels of H3K4me2 at the enhancer regions (region 5) of Atoh1: not statistically significant
Atoh1 locus; D10 with pargyline compared to D0, p<0.01
  level of H3K4me2 at the proximal promoter region (region 2) of Atoh1: significantly increased
Atoh1 locus; addition of pargyline
  enrichment for H3K9me2 on the Atoh1 gene: did not significantly alter
Atoh1 locus; after pargyline treatment, p<0.01
  H3K4me mark at the enhancer region (region 5) of Atoh1: significant enrichment
